Source: patent publication US20160067272A1, “METHODS FOR TREATING IMMUNE DISEASES” (priority 2013, published 2016)
Entries after “also recorded” stand apart in the source; their conditions may differ.

What was measured:
[1] = system: C57Bl/6 mice, OVA-induced allergy; experiment: Allergic mouse model (ovalbumin); format: in vivo
Procedure: FIGS. 20A-20C depicts data from an experiment where allergy was induced in mice (C57B1/6) with intraperitoneal injections of OVA at day 1, 7, 14 and 21. Mice were treated with OVA or a placebo solution (PBS). […] NAD+ can therefore be used in chronic inflammation and allergy such as chronic obstructive pulmonary disease and atopic disorders.
The top panel of the figure is a schematic depicting the experimental protocol.
It is understood in a clinical setting that immunosuppressants are unable to specifically target activated/memory CD4+ T cells. Thus, the inventors next investigated the specificity of NAD+ using an allergic mouse model consisting of several intraperitoneal (i.p.) injections of ovalbumin (OVA) with Alumn. As a control, a group of mice received a placebo solution (PBS). In addition, to assess the specific effect of NAD+ on CD4+CD44^highCD62L^high activated/memory T cells, a group of mice received OVA followed by NAD+ injection.

NOD/Schilt mice = experiment: Type 1 diabetes mouse model; format: in vivo
Procedure: NOD/Schilt mice were used to assess the role of NAD+ as a treatment for Type I Diabetes (T1D). By the 20th week, […] started consistently rising above the normal average. By week 25, […] were detected over 600 mg/dL. These levels were consistently high for 1 week before treatment with NAD+ was initiated. Treatment with NAD+ was given daily at 40 mg per mouse.
It is important to note that most T1D studies begin treating diabetic animals when glucose levels reach 250 mg/dl or greater for 2 consecutive days.

C57BL/6 mice = settings: mouse, in vivo, ip
Procedure: C57BL/6 mice (8-10 weeks old) were daily administered 60 mg of NAD^+ or a placebo solution (PBS) intraperitoneally during 4 days. Blood and spleen were collected after 4 days of treatment. Absolute number of lymphocytes in the blood was determined using a hemocytometer (model 850 FS, Drew Scientific, Miami lakes, Fla.). To determine absolute lymphocyte number in spleens, cells were isolated and counted with a hemocytometer then stained with antibodies anti-CD4^+, CD3^+ or B220^+ and percentage was determined by flow analysis.

[2] = OVA i.p. day 1, 7, 14 and 21, with NAD+

NC(=O)c1ccc[n+]([C@@H]2O[C@H](COP(=O)([O-])OP(=O)(O)OC[C@H]3O[C@@H](n4cnc5c(N)ncnc54)[C@H](O)[C@@H]3O)[C@@H](O)[C@H]2O)c1 [NAD+, nicotinamide adenine dinucleotide]
CD4+CD44highCD62Lhigh activated/memory T cell frequency ([1]; OVA followed by NAD+ injection, after 21 days): targets specifically
frequencies of effector T cells induced by the antigen [1, 2]: reduces specifically
frequencies of mature B cells induced by the antigen [1, 2]: reduces specifically
blood glucose levels (NOD/Schilt mice; diabetic mice (higher than 600 mg/dl), NAD+ daily 40 mg per mouse): much lower levels; also recorded: marked decrease
insulin levels (NOD/Schilt mice; diabetic mice (over 600 mg/dL), NAD+ daily 40 mg per mouse, 5 days after treatment): started to decline at a significant rate
activity of lethargic type 1 diabetic mice (NOD/Schilt mice; within 10 days of NAD+ treatment): became much more active and aggressive
absolute number of circulating lymphocytes in the blood and spleens (C57BL/6 mice): did not affect
